Reference: patent publication US20200190202A1, “Reprogramming of CD8 T Cells with CXCL12 Signaling Inhibitors” (priority 2017, published 2020)
Where two headings read alike, the source gives them in different places.

Tests used:
ovarian cancer = conditions: monotherapy in ovarian tumor-bearing mice; cited from earlier work
[1] = system: GFP-Foxp3 expressing CD4+ splenocytes (Treg cells); conditions: AMD3100 5 μg/ml, 24 hours
[2] = system: T cells in spleens and tumors of 40 L tumor-bearing mice; assay: Immune profiling by flow cytometry, 40 L tumor-bearing mice; format: in vivo, mouse; conditions: for proportion of CD8+ T cells in total live cells: compared to saline control
AE17 mouse mesothelioma = assay: Intraperitoneal malignant mesothelioma model, tumor growth and survival, AE17; format: in vivo; conditions: compared to saline control
[3] = system: CD8+ T cells of AE17 tumor-bearing mice; assay: Ex-vivo restimulation with recombinant mesothelin and intracellular IFN-γ detection, AE17 mice; format: in vivo, mouse; conditions: AE17 model, compared to saline
40 L mouse mesothelioma = assay: Intraperitoneal malignant mesothelioma model, tumor growth and survival, 40 L; format: in vivo; conditions: 40 L model; compared to saline control
[4] = 0.01-0.02 mg/kg subcutaneously twice daily for 6 months; cited from earlier work
[5] = system: T cells in spleens, lymph nodes and tumors of AE17 tumor-bearing mice; assay: Immune profiling by flow cytometry, AE17 tumor-bearing mice; format: in vivo, mouse; conditions: for proportion of CD8+ T cells in total live cells: compared to saline control
[6] = system: CD8+ T cells of 40 L tumor-bearing mice; assay: Ex-vivo restimulation with recombinant mesothelin and intracellular IFN-γ detection, 40 L mice; format: in vivo, mouse; conditions: splenic CD8+ T cells; 40 L model; compared to saline
[7] = tumors, 40 L model, compared to saline
[8] = lymph nodes, AE17 model, compared to saline
[9] = tumors, AE17 model, compared to saline

Question: Which results are given for `c1cc(CN2CCCNCCNCCCNCC2)ccc1CN1CCCNCCNCCCNCC1` [AMD3100, plerixafor]?
Answer: intratumoral Treg cells (ovarian cancer): selective reduction; survival (ovarian cancer): survival advantage; conversion of Foxp3+ CD25− Treg into IL-2+ CD40L+ cells ([1]; anti-CD3/CD28 antibodies 1 μg/ml, P=0.0015): converted more; ratio of the proportion of CD25− cells to CD25+ cells in the Foxp3+ CD4+ population ([1]; anti-CD3/CD28 antibodies 1 μg/ml, P=0.0017): significantly increased; ratio of the proportion of CD25− cells to CD25+ cells in the Foxp3+ CD4+ population ([1]; no anti-CD3/CD28 stimulation): did not change; proportion of PD-1-expressing CD8+ T cells ([2]; spleens, 40 L model, compared to saline): significantly fewer; proportion of CD8+ T cells in total live cells ([2]; spleens, 40 L model): did not increase; proportions of Treg cells ([2]; spleens, 40 L tumor-bearing mice): did not alter; IL-2+ CD40L+ cells among the Foxp3+ CD25− Treg population ([2]; tumors of 40 L mice): significantly more; ratio of CD25− cells to CD25+ cells within the Foxp3+ population ([2]; tumors of 40 L mice): significantly increased; proportion of PD-1-expressing CD8+ T cells [2, 7]: significantly fewer; proportions of Treg [2, 7]: significantly decreased; ratio of CD8+ T cells to Treg [2, 7]: increased; proportion of CD8+ T cells in total live cells ([2]; tumors, 40 L model): did not increase; animal survival (AE17 mouse mesothelioma): only modest benefit; mesothelin-specific IFN-γ expression in CD8+ T cells ([3]; lymph node CD8+ T cells): did not enhance; mesothelin-specific IFN-γ expression in CD8+ T cells ([3]; splenic CD8+ T cells): did not enhance; animal survival (40 L mouse mesothelioma): only modest benefit; safety of long-term, low-dose treatment [4]: safety; IL-2+ CD40L+ cells among the Foxp3+ CD25− Treg population ([5]; lymph nodes of AE17 mice): significantly more; ratio of CD25− cells to CD25+ cells within the Foxp3+ population ([5]; lymph nodes, AE17 model): significantly increased; cell ratio of CD8+ T cells to Treg cells [5, 8]: significantly increased; proportion of PD-1-expressing CD8+ T cells [5, 8]: significantly fewer; proportion of CD8+ T cells in total live cells ([5]; lymph nodes, AE17 model): did not increase; Treg in the lymph nodes ([5]; lymph nodes, AE17 tumor-bearing mice): generally reduced; proportion of PD-1-expressing CD8+ T cells ([5]; spleens, AE17 model, compared to saline): significantly fewer; proportion of CD8+ T cells in total live cells ([5]; spleens, AE17 model): did not increase; proportion of PD-1-expressing CD8+ T cells [5, 9]: significantly fewer; proportions of Treg [5, 9]: significantly decreased; ratio of CD8+ T cells to Treg [5, 9]: increased; proportion of CD8+ T cells in total live cells ([5]; tumors, AE17 model): did not increase; mesothelin-specific IFN-γ expression in CD8+ T cells [6]: did not enhance
